Legend:
Format in all cases: in vivo
[1] = test system: Abca4+/+ (Rpe65 450Leu, pigmented, 129/SV×C57BL/6J) mice; assay: ERG rod b-wave amplitude recovery after photo-bleaching; conditions: 50 mg/kg i.p., 3 days after treatment
Method: Electroretinogram Determinations (ERG): Mice were dark-adapted overnight before all ERG experiments. To determine the acute effect of compounds under study, mice were given a single i.p. injection of […] Control (“untreated”) animals were injected with 25 uL of DMSO. Mice were anaesthetized with ketamine (80 mg/kg) and xylazine (5-10 mg/kg) and pupils were dilated with 1% phenylephrine and 1% cyclopentolate, followed by an exposure to 5000 lux bleaching light for 2 min.
The ERG was recorded from the cornea with a cotton wick saline electrodes for about 50 min immediately after bleaching. Subcutaneous 30 gauge needles on the forehead and trunk were used as reference and ground electrodes, respectively. The animals rested on a heater maintaining the body temperature at 37° C. The light stimulus was obtained from a ganzfeld stimulator having a stroboscope (PS33 Grass Instruments Inc., West Warwick, R.I.) removed from its housing and recessed above and behind the head of the mouse. The flash was diffused to cover the ganzfeld homogeneously. Maximum flash intensity was measured with a calibrated light meter (J16 Tektronics Instruments, Beaverton, Oreg.). Responses were averaged by a Macintosh computer-controlled data acquisition system (PowerLab, AD Instruments, Mountain View, Calif.) at a frequency of 0.1 Hz. […]
The same animals were subjected to ERG experiments according to exactly the same protocol 3 days later, except no (repeated) injection of compounds was performed.
Acute effects: In order to determine whether TDT and TDH have an effect on the visual cycle in vivo, the overnight dark-adapted Abca4^+/+ (Rpe65 450Leu, pigmented, 129/SV×C57BL/6J) mice received single (i.p.) injections of the two compounds at 50 mg/kg. […]
Results are averaged from three mice in each group with SD bars shown. Both isoprenoids delayed the recovery of dark-adapted visual responses to an extent similar to that of 13-RA as judged from dark-adapted ERG b-wave amplitudes recorded using dim light flashes delivered immediately before and at regular intervals after photo-bleaching.

[2] = test system: Balb/c mice; assay: 11-cis-retinal regeneration after bleaching in mice
Method: Animal Studies: Protocols were approved by the Standing Committee on Animal Care of Harvard Medical School, the Institutional Animal Care and Use Committee of Columbia University and complied with guidelines set forth by The Association for Research in Vision and Ophthalmology. 7 week old male Balb/c albino mice and 7 week old male Sprague-Dawley rats were from Charles River Breeding Laboratories and were housed in 12:12 h light:dark cycle. 8-10 week old Abcr null mutant mice (129/SV×C57BL/6J) were generated as formerly described (12,20) and Abcr^−/− and Abcr^+/+ mice were raised under 12-hour on-off cyclic lighting with an in-cage illuminance of 30-50 lux. In Abcr^−/− and Abcr^+/+ mice, Rpe65 was 9 sequenced as reported previously.
Similar experiments with inhibitors were also performed in Balb/c mice. Here again inhibition is observed, but the effects are less pronounced than in rats, both with 13-RA and the isoprenoid antagonists. The inhibition values are as follows: 13-RA (33±4%), TDT (35±2%), and TDH (24±6%). It is noteworthy that in rats the 11-cis chromophore is regenerated considerably more slowly than in mice.

[3] = test system: Sprague Dawley rats; assay: 11-cis-retinal regeneration after bleaching in rats; conditions: for average inhibition of 11-cis-retinal regeneration: 50 mg/kg i.p. single injection, rats
Method: To establish whether recovery of the dark-adapted rod b-wave was retarded because of an effect on 11-cis-retinal synthesis we studied the effects of TDT on 11-cis-retinal regeneration in rats and mice. The 11-cis-retinal that is regenerated is essentially all bound to rhodopsin in rodents, so that measuring its level is equivalent to measuring the rhodopsin content. Initial experiments were performed on Sprague Dawley rats because similar experiments using 13-RA were previously carried out using these animals so that ready comparisons of potency and effectiveness can be made. […] Accordingly, in the current experiments, the rats were given single injections (i.p.) of TDT (TDH) (50 mg/kg in DMSO), 13-RA (50 mg/kg in DMSO), and DMSO alone. After injecting the analogs, the rats were dark adapted for 2 h, and then exposed to light that led to <10% of dark adapted 11-cis-retinal in these animals, compared to dark adapted controls (data not shown). After allowing the bleached rats to dark-adapt again for 30 min, the animals were sacrificed, and the regenerated 11-cis-retinal was determined as indicated in Methods. In these experiments, the amount of resynthesized 11-cis-retinal, the chromophore of rhodopsin, is measured by HPLC and compared to the amounts of all-trans-retinyl ester precursor.
These figures show results of HPLC analysis of extracted retinoids from drug treated rats. […] In FIG. 28A, the relative amounts of 11-cis-retinal-syn-oxime and all-trans-(cis)-retinyl esters are shown for the control (−13-RA) (top) and drug treated animals (bottom). In FIG. 28B, the corresponding data are shown for the TDT treated rats (top-control, bottom TDT treated). In this case, the ester pool in the drug treated rat is largely, if not exclusively, all-trans. […] Upon repetition of the experiments two further times the average inhibition values are as follows: 13-RA (78±2%), TDT (79±4%), and TDH (55±2%). These percent inhibition values are generated by comparing the integrated areas under the retinyl ester and 11-cis-retinal-syn-oxime peaks. (Materials and Methods).

[4] = Tolerability in treated animals; conditions: even when administered every 48 h
Description: With respect to the pharmacology of the isoprenoid mRPE65 antagonists, it should be noted that the effects of both TDT and TDH are substantially more persistent than with 13-RA, probably because they are more hydrophobic than the retinoic acids. An increase in hydrophobicity tends to slow down rates of elimination of drugs.

Compound | effect on rod b-wave recovery [1] | inhibition of 11-cis-retinal regeneration [2] [%] | average inhibition of 11-cis-retinal regeneration [3] [%] | tolerability / signs of toxicity [4] | inhibitory effect on 11-cis-retinal regeneration ([3]; 50 mg/kg i.p., FIG. 28C)
CC1=C(/C=C/C(C)=C/C=C/C(C)=C\C(=O)O)C(C)(C)CCC1 [13-cis-retinoic acid, reference compound] | no sustained effect | 33±4 | 78±2 | – | –
CCCCCCCCCCCCCCCCNC(=O)/C=C(\C)CC/C=C(\C)CCC=C(C)C [TDH, 3,7,11-Trimethyl-dodeca-2,6,10-trienoic acid hexadecylamide] | substantial effect | 24±6 | 55±2 | no obvious signs of toxicity and/or distress | less pronounced than with TDT
CCCCCCCCCCC(=O)/C=C(\C)CC/C=C(\C)CCC=C(C)C [TDT, 13,17,21-Trimethyl-docosa-12,16,20-trien-11-one] | substantial effect | 35±2 | 79±4 | no obvious signs of toxicity and/or distress | –
